Strand notation (5' to 3'): a small letter for the sugar, then the base; units joined by * are phosphorothioate-linked, units joined directly phosphodiester-linked; [ ] holds rarer units or linkages, { } end groups; capitals alone tell only the bases. e = 2'-O-(2-methoxyethyl) (MOE); [5mC] = 5-methylcytosine; d = 2'-deoxy (DNA)
Tests used:
human Factor 11 mRNA [1] = assay: Antisense inhibition of human Factor 11 in HepG2 cells by microwalk gapmers, lipofectin, 75 nM (Example 3); type: cell-based
In short: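 HepG2 cells (10,000/well) were transfected via lipofectin with 75 nM 20-mer MOE gapmers (phosphorothioate, 5-methyl-C) for about 24 h. Factor 11 mRNA was measured by qRT-PCR, normalized to RIBOGREEN total RNA, and given as percent inhibition versus untreated cells.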

human Factor 11 mRNA [2] = assay: Dose-dependent inhibition of human Factor 11 in HepG2 cells, electroporation 0.7-20 uM (Example 4); type: cell-based; conditions: for percent inhibition of Factor 11 at 0.7 μM / percent inhibition of Factor 11 at 2.2 μM / percent inhibition of Factor 11 at 6.7 μM / percent inhibition of Factor 11 at 20 μM: relative to untreated control cells
In short: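 HepG2 cells electroporated with antisense gapmers at 0.7, 2.2, 6.7 and 20 μM, treated ~16 h. Factor 11 mRNA quantified by qRT-PCR (primer probe set RTS 2966), normalised to RIBOGREEN total RNA; expressed as percent inhibition versus untreated control cells.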

human Factor 11 mRNA [3] = assay: Dose-dependent inhibition of human Factor 11 in HepG2 cells, lipofectin 9.375-75 nM (Example 4); type: cell-based; conditions: for percent inhibition of Factor 11 at 9.375 nM / percent inhibition of Factor 11 at 18.75 nM / percent inhibition of Factor 11 at 37.5 nM / percent inhibition of Factor 11 at 75 nM: relative to untreated control cells
In short: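 HepG2 cells transfected via lipofectin with antisense oligonucleotide at 9.375, 18.75, 37.5 or 75 nM for about 16 h. Factor 11 mRNA quantified by real-time RT-PCR (primer probe set RTS 2966) and normalized to total RNA (RIBOGREEN). Results expressed as percent inhibition versus untreated cells.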

human Factor 11 mRNA [4] = assay: Antisense inhibition of human Factor 11 in HepG2 cells, electroporation, 8,000 nM (Example 30); type: cell-based; conditions: electroporation, 8,000 nM antisense oligonucleotide
In short: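 HepG2 cells electroporated with 8,000 nM 5-10-5, 5-8-5 or 6-8-6 MOE gapmers (phosphorothioate, 5-methylcytidine), ~24 h. Factor 11 mRNA quantified by qRT-PCR, normalised to RIBOGREEN total RNA. Reported as percent inhibition versus untreated cells.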

[5] = Tolerability in Sprague-Dawley rats: kidney function, urine protein/creatinine (Example 35); conditions: Sprague Dawley rats
Procedure: A control group of four Sprague Dawley rats was injected subcutaneously with PBS twice per week for 6 weeks. Body weight measurements were taken before and throughout the treatment period. Urine samples were taken before the start of treatment. Three days after the last dose, urine samples were taken and the rats were sacrificed. Organ weights were measured and blood was collected for further analysis.
To evaluate the effect of kidney function, plasma concentrations of blood urea nitrogen (BUN) and creatinine were measured using an automated clinical chemistry analyzer (Hitachi Olympus AU400e, Melville, N.Y.).

[6] = HepG2 cells, lipofectin, gapmers targeted to nucleobases 1275 to 1318 of SEQ ID NO: 1
[7] = HepG2, lipofectin, ~24 h, gapmers targeted to nucleobases 656 to 704 of SEQ ID NO: 1
[8] = After treatment, 50 mg/kg s.c. twice per week for 6 weeks
[9] = Before antisense oligonucleotide treatment

Row | Substance | % inhibition (human Factor 11 mRNA [1]; HepG2 cells, lipofectin, gapmers targeted to nucleobases 738 to 762 of SEQ ID NO: 1) | IC50 (human Factor 11 mRNA [2]) | percent inhibition of Factor 11 at 0.7 μM (human Factor 11 mRNA [2]) | percent inhibition of Factor 11 at 2.2 μM (human Factor 11 mRNA [2]) | percent inhibition of Factor 11 at 6.7 μM (human Factor 11 mRNA [2]) | percent inhibition of Factor 11 at 20 μM (human Factor 11 mRNA [2]) | IC50 (human Factor 11 mRNA [3]) | percent inhibition of Factor 11 at 9.375 nM (human Factor 11 mRNA [3]) | percent inhibition of Factor 11 at 18.75 nM (human Factor 11 mRNA [3]) | percent inhibition of Factor 11 at 37.5 nM (human Factor 11 mRNA [3]) | percent inhibition of Factor 11 at 75 nM (human Factor 11 mRNA [3]) | Percent inhibition of human Factor 11 mRNA levels (human Factor 11 mRNA [4]) | % inhibition (human Factor 11 mRNA [1]; [6]) | % inhibition (human Factor 11 mRNA [1]; [7]) | Urine protein/creatinine ratio [5, 8] | Urine protein/creatinine ratio [5, 9] | % inhibition (human Factor 11 mRNA [1]; HepG2 cells, lipofectin, gapmers targeted to nucleobases 1018 to 1042 of SEQ ID NO: 1)
1 | 412206 (antisense e[5mC]*e[5mC]*eG*eT*eG*d[5mC]*dA*dT*d[5mC]*dT*dT*dT*d[5mC]*dT*dT*eG*eG*e[5mC]*eA*eT) [compound 412206] | 93% | 2700 nM | 22% | 39% | 81% | 94% | 21 nM | 24% | 47% | 69% | 86% | 91% | – | – | – | – | –
2 | 412223 (antisense ACAGTTTCTGGCAGGCCTCG; 5-10-5 MOE gapmer, further chemistry not given here) [compound 412223] | – | – | – | – | – | – | – | – | – | – | – | 62% | 85% | – | – | – | –
3 | 412224 (antisense GCATTGGTGCACAGTTTCTG; 5-10-5 MOE gapmer, further chemistry not given here) [compound 412224] | – | – | – | – | – | – | – | – | – | – | – | 84% | 93% | – | – | – | –
4 | 412225 (antisense GCAGCGGACGGCATTGGTGC; 5-10-5 MOE gapmer, further chemistry not given here) [compound 412225] | – | – | – | – | – | – | – | – | – | – | – | 86% | 86% | – | – | – | –
5 | 413482 (antisense GGACGGCATTGGTGCACAGT; 5-10-5 MOE gapmer, further chemistry not given here) [compound 413482] | – | – | – | – | – | – | – | – | – | – | – | 88% | 89% | – | – | – | –
6 | 416826 (antisense ATGCCCTTCATGTCTAGGTC; 5-10-5 gapmer, further chemistry not given here) [compound 416826] | – | 3200 nM | 2% | 47% | 86% | 82% | 29 nM | 8% | 36% | 58% | 84% | – | – | 94% | 11.4 | 1.0 | –
7 | 416838 (antisense GCAACCGGGATGATGAGTGC; 5-10-5 gapmer, further chemistry not given here) [compound 416838] | – | 5100 nM | 5% | 30% | 55% | 83% | 19 nM | 31% | 51% | 64% | 86% | – | – | – | 3.7 | 1.2 | 94%
8 | 416856 (antisense GGCATTGGTGCACAGTTTCT; 5-10-5 gapmer, further chemistry not given here) [compound 416856] | – | 5100 nM | 0% | 29% | 47% | 93% | 27 nM | 21% | 45% | 58% | 74% | 84% | 95% | – | – | – | –
9 | 416892 (antisense GCCCTTCATGTCTAGGTCCA; 3-14-3 chimeric gapmer, further chemistry not given here) [compound 416892] | – | 2500 nM | 14% | 52% | 82% | 92% | 23 nM | 16% | 50% | 70% | 85% | – | – | 100% | 21.3 | 0.8 | –
